The results in this text go back to patent US10906899B2, “Bicyclic fused pyrazole derivatives for the treatment of RSV” (GEORGIA STATE UNIVERSITY RESEARCH FOUNDATION, INC., priority 2016, dated 2021).

SMILES strings stand for the structures.

In general, EC50 refers to the concentration at which the effect is half-maximal.

One assay deals with RSV. The experiment in a line: Dose-response counterscreen: luciferase reporter virus infection of BEAS-2B cells (EC50). The format is cell-based, respiratory syncytial virus (RSV). The following applies: human respiratory syncytial virus, A series compounds, anti-RSV potency, read-out: Potency Range (EC50 values).
In the case of `COc1ccc(C2CC(=O)Nc3nn(-c4ccccn4)cc32)cc1OC1CCCC1` (centres unmarked) [AVG-117], the EC50 lay within 10000 to 20000 nM.

Still in this assay, the particulars now being: human respiratory syncytial virus, B series compounds, read-out: Potency Range (EC50 values).
For the molecule `Cc1c2c(=O)n(-c3nc4ccccc4s3)n(Cc3ccccn3)c2cc(=O)n1Cc1ccco1` [AVG-119], the concentration for a half-maximal effect (EC50) lay within 1000 to 10000 nM.
Still for that read-out and setting: to `Cc1c2c(=O)n(-c3nc4ccccc4s3)n(Cc3cccnc3)c2cc(=O)n1Cc1ccco1` [AVG-120] belongs 1000 to 10000 nM; to `Cc1c2c(=O)n(-c3nc4ccccc4s3)n(Cc3ccncc3)c2cc(=O)n1Cc1ccco1` [AVG-121], 1000 to 10000 nM; to `Cc1c2c(=O)n(-c3nc4ccccc4s3)n(Cc3ccco3)c2cc(=O)n1Cc1ccco1` [AVG-122], 1000 to 10000 nM.
Regarding `Cc1c2c(=O)n(-c3nc4ccccc4s3)n(Cc3ccoc3)c2cc(=O)n1Cc1ccco1` [AVG-123], the EC50 lay within 10000 to 20000 nM.
Regarding `Cc1c2c(=O)n(-c3nc4ccccc4s3)n(Cc3ncco3)c2cc(=O)n1Cc1ccco1` [AVG-124], the EC50 lay within 1000 to 10000 nM.
For the molecule `Cc1c2c(=O)n(-c3nc4ccccc4s3)n(Cc3cocn3)c2cc(=O)n1Cc1ccco1` [AVG-125], the EC50 was greater than 20000 nM.
Turning to `Cc1c2c(=O)n(-c3nc4ccccc4s3)n(Cc3cnco3)c2cc(=O)n1Cc1ccco1` [AVG-126], the half-maximal effective concentration (EC50) lay in the range of 1000 to 10000 nM.
In the case of `Cc1c2c(=O)n(-c3ccccn3)n(Cc3ccccc3)c2cc(=O)n1Cc1ccccc1Cl` [AVG-127], the half-maximal effective concentration (EC50) fell in the range of 100 to 1000 nM.
Take `Cc1c2c(=O)n(-c3ccccn3)n(Cc3ccccc3)c2cc(=O)n1Cc1cccc(Cl)c1` [AVG-128]: the concentration for a half-maximal effect (EC50) lay in the range of 100 to 1000 nM.
Turning to `Cc1c2c(=O)n(-c3ccccn3)n(Cc3ccccc3)c2cc(=O)n1Cc1ccc(F)cc1` [AVG-129], the EC50 fell in the range of 100 to 1000 nM.
As to `Cc1c2c(=O)n(-c3ccccn3)n(Cc3ccccc3)c2cc(=O)n1Cc1ccccc1F` [AVG-130], the EC50 is 100 to 1000 nM.
Take `Cc1c2c(=O)n(-c3ccccn3)n(Cc3ccccc3)c2cc(=O)n1Cc1cccc(F)c1` [AVG-131]: the EC50 lay within 100 to 1000 nM.
Still for that read-out and setting: next, `COc1ccc(Cn2c(C)c3c(=O)n(-c4ccccn4)n(Cc4ccccc4)c3cc2=O)cc1` [AVG-132]: 1000 to 10000 nM.
On to `COc1ccccc1Cn1c(C)c2c(=O)n(-c3ccccn3)n(Cc3ccccc3)c2cc1=O` [AVG-133], for which the concentration giving a half-maximal response (EC50) was 100 to 1000 nM.
As to `COc1cccc(Cn2c(C)c3c(=O)n(-c4ccccn4)n(Cc4ccccc4)c3cc2=O)c1` [AVG-134], the EC50 is 100 to 1000 nM.
Take `Cc1c2c(=O)n(-c3nc4ccccc4s3)n(C(C)c3ccccc3)c2cc(=O)n1Cc1ccccn1` (centres unmarked) [AVG-135]: the EC50 lay within 10000 to 20000 nM.
`Cc1cccc(Cn2c(C)c3c(=O)n(-c4nc5ccccc5s4)n(Cc4ccccc4)c3cc2=O)n1` [AVG-157]: the EC50 lay within 100 to 1000 nM.
As to `COc1cccc(Cn2c(C)c3c(=O)n(-c4nc5ccccc5s4)n(Cc4ccccc4)c3cc2=O)n1` [AVG-158], the EC50 fell in the range of 100 to 1000 nM.
With `Cc1c2c(=O)n(-c3nc4ccccc4s3)n(Cc3ccccc3)c2cc(=O)n1Cc1cccc(C(C)C)n1` [AVG-159], the EC50 lay in the range of 10 to 100 nM.
With `Cc1c2c(=O)n(-c3nc4ccccc4s3)n(Cc3ccccc3)c2cc(=O)n1Cc1cc(Cl)ccn1` [AVG-160], the concentration for a half-maximal effect (EC50) lay within 1000 to 10000 nM.
The same measure, in the same setting: to `Cc1c2c(=O)n(-c3nc4ccccc4s3)n(Cc3ccccc3)c2cc(=O)n1Cc1ncccc1Cl` [AVG-161] belongs 1000 to 10000 nM; to `Cc1c2c(=O)n(-c3nc4ccccc4s3)n(Cc3ccccc3)c2cc(=O)n1Cc1cncc(Cl)n1` [AVG-162], 10000 to 20000 nM.
For `Cc1c2c(=O)n(-c3nc4ccccc4s3)n(Cc3ccccc3)c2cc(=O)n1Cc1cnc(Cl)cn1` [AVG-163], the EC50 lay in the range of 1000 to 10000 nM.
Still for that read-out and setting: next, `Cc1c2c(=O)n(-c3nc4ccccc4s3)n(Cc3ccccc3)c2cc(=O)n1Cc1nccnc1Cl` [AVG-164]: greater than 20000 nM.
As to `CCc1c2c(=O)n(-c3nc4ccccc4s3)n(Cc3ccccc3)c2cc(=O)n1Cc1cccc(Cl)n1` [AVG-165], the EC50 is 1000 to 10000 nM.
Take `CC(C)c1c2c(=O)n(-c3nc4ccccc4s3)n(Cc3ccccc3)c2cc(=O)n1Cc1cccc(Cl)n1` [AVG-166]: the EC50 lay within 1000 to 10000 nM.
On to `Cc1c2c(=O)n(-c3nc4ccccc4s3)n(Cc3ccccc3)c2cc(=O)n1Cc1ccc(Cl)c(Cl)n1` [AVG-168], for which the EC50 lay within 100 to 1000 nM.
